Measured values published in the NIST ThermoML archive (doi:10.1016/j.jct.2019.06.009).
Numbers after ± are expanded uncertainties.

Columns and labels:
[1] = Molar enthalpy of transition or fusion; details: Crystal; DSC
[2] = Crystal; DSC

Molar enthalpy of transition or fusion [1]: 2.53 ± 0.239 kcal/mol
Triple point temperature [2]: 400.19 ± 2.1 K
SMILES: C=NCC#N [methyleneaminoacetonitrile]
